Results as given in ChEMBL document CHEMBL1275440, “In vitro activity of telavancin against resistant gram-positive bacteria” (2008).
≈ marks a conversion by molar mass, not a printed value. Calls of active or inactive are those of the source. No cut-off for these calls is given here.

Experiments:
Streptococcus pneumoniae [1] = assay: Antibacterial activity against multidrug-resistant Streptococcus pneumoniae clinical isolate by broth microdilution method; format: functional
Streptococcus pneumoniae [2] = assay: Antibacterial activity against penicillin intermediate Streptococcus pneumoniae clinical isolate assessed as susceptibility level by broth microdilution method; format: functional
[3] = system: Streptococcus constellatus; assay: Antibacterial activity against Streptococcus constellatus clinical isolate by broth microdilution method; format: functional
Streptococcus pneumoniae [4] = assay: Antibacterial activity against penicillin resistant Streptococcus pneumoniae clinical isolate by broth microdilution method; format: functional
[5] = system: Streptococcus intermedius; assay: Antibacterial activity against Streptococcus intermedius clinical isolate assessed as susceptibility level by broth microdilution method; format: functional
Streptococcus mitis [6] = assay: Antibacterial activity against Streptococcus mitis clinical isolate assessed as susceptibility level by broth microdilution method; format: functional
[7] = system: Streptococcus constellatus; assay: Antibacterial activity against Streptococcus constellatus clinical isolate assessed as susceptibility level by broth microdilution method; format: functional
Streptococcus viridans [8] = assay: Antibacterial activity against Streptococcus viridans clinical isolate assessed as susceptibility level by broth microdilution method; format: functional
[9] = system: Streptococcus intermedius; assay: Antibacterial activity against Streptococcus intermedius clinical isolate by broth microdilution method; format: functional
Streptococcus pneumoniae [10] = assay: Antibacterial activity against penicillin resistant Streptococcus pneumoniae clinical isolate assessed as susceptibility level by broth microdilution method; format: functional
Streptococcus mitis [11] = assay: Antibacterial activity against Streptococcus mitis clinical isolate by broth microdilution method; format: functional
Streptococcus oralis [12] = assay: Antibacterial activity against Streptococcus oralis clinical isolate assessed as susceptibility level by broth microdilution method; format: functional
Streptococcus oralis [13] = assay: Antibacterial activity against Streptococcus oralis clinical isolate by broth microdilution method; format: functional
Streptococcus viridans [14] = assay: Antibacterial activity against Streptococcus viridans clinical isolate by broth microdilution method; format: functional
Streptococcus pneumoniae [15] = assay: Antibacterial activity against multidrug-resistant Streptococcus pneumoniae clinical isolate assessed as susceptibility level by broth microdilution method; format: functional
Streptococcus agalactiae [16] = assay: Antibacterial activity against Streptococcus agalactiae group B clinical isolate by broth microdilution method; format: functional
Streptococcus pyogenes [17] = assay: Antibacterial activity against Streptococcus pyogenes group A clinical isolate assessed as susceptibility level by broth microdilution method; format: functional
Streptococcus pyogenes [18] = assay: Antibacterial activity against Streptococcus pyogenes group A clinical isolate by broth microdilution method; format: functional
Streptococcus agalactiae [19] = assay: Antibacterial activity against Streptococcus agalactiae group B clinical isolate assessed as susceptibility level by broth microdilution method; format: functional
Streptococcus pneumoniae [20] = assay: Antibacterial activity against penicillin intermediate Streptococcus pneumoniae clinical isolate by broth microdilution method; format: functional

SMILES	MIC50 (Streptococcus pneumoniae [1]) [µg/mL]	MIC90 (Streptococcus pneumoniae [1]) [µg/mL]	Activity (Streptococcus pneumoniae [2]) [%]	MIC [3] [µg/mL]	MIC50 [3]	MIC90 [3]	MIC50 (Streptococcus pneumoniae [4]) [µg/mL]	MIC90 (Streptococcus pneumoniae [4]) [µg/mL]	MIC [9] [µg/mL]	MIC50 [9]	MIC90 [9]	MIC (Streptococcus mitis [11]) [µg/mL]	MIC50 (Streptococcus mitis [11])	MIC90 (Streptococcus mitis [11])	MIC (Streptococcus oralis [13]) [µg/mL]	MIC50 (Streptococcus oralis [13])	MIC90 (Streptococcus oralis [13])	MIC (Streptococcus viridans [14]) [µg/mL]	MIC50 (Streptococcus viridans [14])	MIC90 (Streptococcus viridans [14])	further results
O=C(O)c1cn(C2CC2)c2cc(N3CCNCC3)c(F)cc2c1=O																					MIC50 (Enterococcus faecalis): inactive; MIC90 (Enterococcus faecalis): inactive
CO/N=C(\C(=O)N[C@@H]1C(=O)N2C(C(=O)O)=C(CSc3nc(=O)c(O)nn3C)CS[C@H]12)c1csc(N)n1 [CEFTRIAXONE]	1 (≈ 1.8 µM)	2 (≈ 3.61 µM)	92	0.03 (≈ 0.0541 µM)	inactive	inactive	1 (≈ 1.8 µM)	2 (≈ 3.61 µM)	0.03 (≈ 0.0541 µM)	inactive	inactive	0.03 (≈ 0.0541 µM)	inactive	inactive	0.03 (≈ 0.0541 µM)	inactive	inactive	0.03 (≈ 0.0541 µM)	inactive	inactive	Activity [5]: 75%; Activity (Streptococcus mitis [6]): 75%; Activity [7]: 75%; Activity (Streptococcus viridans [8]): 75%; Activity (Streptococcus pneumoniae [10]): 73%; Activity (Streptococcus oralis [12]): 75%; Activity (Streptococcus pneumoniae [15]): 77%; MIC50 (Streptococcus agalactiae [16]): 0.06 µg/mL (≈ 0.108 µM); MIC90 (Streptococcus agalactiae [16]): 0.06 µg/mL (≈ 0.108 µM); Activity (Streptococcus pyogenes [17]): 92%; MIC (Streptococcus pyogenes [18]): ≤ 0.015 µg/mL; MIC50 (Streptococcus pyogenes [18]): ≤ 0.015 µg/mL; MIC90 (Streptococcus pyogenes [18]): 0.12 µg/mL (≈ 0.216 µM); Activity (Streptococcus agalactiae [19]): 96%; MIC50 (Streptococcus pneumoniae [20]): 0.5 µg/mL (≈ 0.902 µM); MIC90 (Streptococcus pneumoniae [20]): 1 µg/mL (≈ 1.8 µM)
CO/N=C(\C(=O)N[C@@H]1C(=O)N2C(C(=O)O)=C(COC(N)=O)CS[C@H]12)c1ccco1 [CEFUROXIME]	> 4	> 4	17	≤ 0.12	inactive	inactive	> 4	> 4	≤ 0.12	inactive	inactive	≤ 0.12	inactive	inactive	≤ 0.12	inactive	inactive	≤ 0.12	inactive	inactive	Activity (Streptococcus pneumoniae [10]): 2%; Activity (Streptococcus pneumoniae [15]): 2%; MIC (Streptococcus agalactiae [16]): ≤ 0.12 µg/mL; MIC50 (Streptococcus agalactiae [16]): ≤ 0.12 µg/mL; MIC90 (Streptococcus agalactiae [16]): ≤ 0.12 µg/mL; MIC (Streptococcus pyogenes [18]): ≤ 0.12 µg/mL; MIC50 (Streptococcus pyogenes [18]): ≤ 0.12 µg/mL; MIC90 (Streptococcus pyogenes [18]): 0.25 µg/mL (≈ 0.589 µM); MIC50 (Streptococcus pneumoniae [20]): 2 µg/mL (≈ 4.71 µM); MIC90 (Streptococcus pneumoniae [20]): 4 µg/mL (≈ 9.43 µM)
CC1(C)S[C@@H]2[C@H](NC(=O)Cc3ccccc3)C(=O)N2[C@H]1C(=O)O [PENICILLIN G]	2 (≈ 5.98 µM)	> 2	0	≤ 0.06	inactive	inactive	2 (≈ 5.98 µM)	> 2	≤ 0.06	inactive	inactive	≤ 0.06	inactive	inactive	≤ 0.06	inactive	inactive	≤ 0.06	inactive	inactive	MIC (Streptococcus pneumoniae [4]): 2 µg/mL (≈ 5.98 µM); Activity [5]: 62%; Activity (Streptococcus mitis [6]): 62%; Activity [7]: 62%; Activity (Streptococcus viridans [8]): 62%; Activity (Streptococcus oralis [12]): 62%; MIC (Streptococcus agalactiae [16]): ≤ 0.06 µg/mL; MIC50 (Streptococcus agalactiae [16]): ≤ 0.06 µg/mL; MIC90 (Streptococcus agalactiae [16]): ≤ 0.06 µg/mL; Activity (Streptococcus pyogenes [17]): 93%; MIC (Streptococcus pyogenes [18]): ≤ 0.06 µg/mL; MIC50 (Streptococcus pyogenes [18]): ≤ 0.06 µg/mL; MIC90 (Streptococcus pyogenes [18]): ≤ 0.06 µg/mL; Activity (Streptococcus agalactiae [19]): 96%; MIC50 (Streptococcus pneumoniae [20]): 1 µg/mL (≈ 2.99 µM); MIC90 (Streptococcus pneumoniae [20]): 1 µg/mL (≈ 2.99 µM)
